Patent US7605168B2 (Plexxikon, Inc., priority 2004, dated 2009)
pIC50: −log10 of the molar value.

Experiments:
[1] = target: T1, PDE4D5: full-length human PDE4D5 isozyme (Homo sapiens, UniProt Q08499); experiment: PDE4 IC50 determination by Scintillation Proximity Assay (SPA), full-length PDE4D5; assay type: biochemical; settings: cell lysate, [3H]cAMP SPA
T1 construct: made in house; host or cells: baculovirus infected insect cells (pFastBacHT)
Method in brief: (§1)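 Unpurified enzyme from cell lysates (PDE4B2 2.5 μl, PDE4D5 0.083 μl of 50% glycerol stock/ml) hydrolysing [3H]cAMP in 50 mM Tris pH 7.5, 8.3 mM MgCl, 1.7 mM EGTA, 0.01% BSA, 30 min at 30 °C. Stopped with yttrium silicate SPA beads in 18 mM ZnSO4; bead-bound [3H]AMP counted. IC50 by non-linear regression.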

[2] = target: T2, PDE4B2: full-length human PDE4B2 isozyme (Homo sapiens, UniProt Q07343); experiment: PDE4 IC50 determination by Scintillation Proximity Assay (SPA), full-length PDE4B2; assay type: biochemical; settings: cell lysate, [3H]cAMP SPA
T2 construct: made in house; host or cells: baculovirus infected insect cells (pFastBacHT)
Method in brief: as §1

[3] = target: T3, PDE4B: catalytic domain of human PDE4B from S152-S528 (Homo sapiens, UniProt Q07343); experiment: PDE4 IC50 determination by Scintillation Proximity Assay (SPA), PDE4B catalytic domain; assay type: biochemical; settings: [3H]cAMP SPA, 30 min at 30° C.
T3 construct: The catalytic domain of human PDE4B from S152-S528; His6 (N, cleaved yes); thrombin cleavage site (N, cleaved yes); made in house; host or cells: E. coli BL21 (DE3) RIL
Method in brief: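 Human PDE4B catalytic domain (80 ng/ml) hydrolysed [3H]cAMP in 50 mM Tris pH 7.5, 8.3 mM MgCl, 1.7 mM EGTA, 0.01% BSA for 30 min at 30 °C. Reaction was stopped with yttrium silicate SPA beads in 18 mM ZnSO4, and bound [3H]AMP was counted by scintillation. IC50 came from non-linear regression.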

[4] = target: T4, PDE4D: catalytic domain S316-V692 (Homo sapiens, UniProt Q08499); experiment: PDE4 IC50 determination by Scintillation Proximity Assay (SPA), PDE4D catalytic domain; assay type: biochemical; settings: [3H]cAMP SPA, 30 min at 30° C.
T4 construct: pET15S PDE4D S316-V692-X; His6 (N, cleaved yes); thrombin cleavage site (N, cleaved yes); made in house; host or cells: E. coli BL21 (DE3) RIL
Procedure: IC50s were determined by Scintillation Proximity Assay (SPA). The principle of the assay is based on the fact that cAMP, the PDE4 substrate, binds weakly to Yittrium Silicate SPA beads, whereas AMP, the product of PDE4 hydrolysis binds strongly. Thus, the extent of PDE4 hydrolysis of a sample of [^3H]cAMP can be measured because only the [^3H]AMP produced by PDE4 hydrolysis will bind to the SPA beads and produce a scintillation signal.
[…] Enzyme was stored in 50% glycerol at −20°. See Example 144.
Compounds tested (see Tables 5 for compounds and results) were 3-fold serially diluted 11 times in DMSO from a starting concentration of 4 mM or 40 μM, depending on compound potency. 1 μl of each dilution was transferred into duplicate wells of a white polystyrene 384-well assay plate (Corning #3710). In addition to the compound dilutions, each assay plate contained control wells with 1 μl of DMSO (to define 0% enzyme inhibition) or 1 μl of 200 μM roflumilast (to define 100% enzyme inhibition). Using a Beckman FX robot, 10 μl of [^3H] cAMP (Amersham TRK559) at […] in assay buffer (50 mM Tris, pH 7.5; 8.3 mM MgCl; 1.7 mM EGTA; 0.01% BSA) was transferred to each assay well. Next, 10 μl of PDE4 enzyme in assay buffer was added and the plates were shaken for 30 s. at 1000 rpm to start the cAMP hydrolysis reaction. The concentrations of enzyme used were: PDE4B, 80 ng/ml; PDE4D, 4 ng/ml; PDE4B2, 2.5 μl of 50% glycerol stock/ml; PDE4D5 0.083 μl of 50% glycerol stock/ml. Assay plates were covered and incubated for 30 min. at 30° C. Reactions were stopped by robotic addition of 10 μl of 5 mg/ml SPA beads (Amersham RPNQ0013) in 18 mM ZnSO4. The assay plates were covered with clear plastic film, centrifuged for 1 min. at 1000 RPM to settle the SPA beads, and counted using a Wallac TriLux scintillation counter. IC50's were calculated from the raw assay data by non-linear regression curve fitting using the Assay Explorer software package from MDL.

[5] = system: TNF-α release from whole blood cultures stimulated with LPS; experiment: IC50 by TNF alpha production upon stimulation of whole blood cultures with LPS; assay type: cell-based; settings: human whole blood (buffy coat) culture, 100 ng/ml LPS, 4 hours; read-out: h TNFα IC50
Method in brief: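 Human buffy coat, diluted with 7 volumes of RPMI/2.5% heat-inactivated FBS, was preincubated with compound (8-point 1:3 series) for 1 h at 37 °C. It was then stimulated with 100 ng/ml LPS (final) for 4 h. Supernatant TNF-α was measured by sandwich ELISA at 450 nm, and IC50 was set between DMSO (0%) and PDE4-inhibitor (100%) controls.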

T3 sequence (Q07343 324-700): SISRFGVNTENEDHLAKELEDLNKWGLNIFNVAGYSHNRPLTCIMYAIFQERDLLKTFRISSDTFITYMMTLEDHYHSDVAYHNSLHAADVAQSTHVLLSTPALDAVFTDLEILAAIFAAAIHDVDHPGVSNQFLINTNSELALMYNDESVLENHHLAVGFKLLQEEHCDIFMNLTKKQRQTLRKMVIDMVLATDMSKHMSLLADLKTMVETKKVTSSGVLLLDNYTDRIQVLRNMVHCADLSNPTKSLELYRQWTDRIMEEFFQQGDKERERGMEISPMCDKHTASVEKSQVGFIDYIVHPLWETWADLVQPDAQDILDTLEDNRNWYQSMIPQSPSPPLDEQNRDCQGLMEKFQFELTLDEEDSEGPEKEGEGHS
T1 sequence (Q08499 with tags, fused parts or gaps isoform Q08499-6): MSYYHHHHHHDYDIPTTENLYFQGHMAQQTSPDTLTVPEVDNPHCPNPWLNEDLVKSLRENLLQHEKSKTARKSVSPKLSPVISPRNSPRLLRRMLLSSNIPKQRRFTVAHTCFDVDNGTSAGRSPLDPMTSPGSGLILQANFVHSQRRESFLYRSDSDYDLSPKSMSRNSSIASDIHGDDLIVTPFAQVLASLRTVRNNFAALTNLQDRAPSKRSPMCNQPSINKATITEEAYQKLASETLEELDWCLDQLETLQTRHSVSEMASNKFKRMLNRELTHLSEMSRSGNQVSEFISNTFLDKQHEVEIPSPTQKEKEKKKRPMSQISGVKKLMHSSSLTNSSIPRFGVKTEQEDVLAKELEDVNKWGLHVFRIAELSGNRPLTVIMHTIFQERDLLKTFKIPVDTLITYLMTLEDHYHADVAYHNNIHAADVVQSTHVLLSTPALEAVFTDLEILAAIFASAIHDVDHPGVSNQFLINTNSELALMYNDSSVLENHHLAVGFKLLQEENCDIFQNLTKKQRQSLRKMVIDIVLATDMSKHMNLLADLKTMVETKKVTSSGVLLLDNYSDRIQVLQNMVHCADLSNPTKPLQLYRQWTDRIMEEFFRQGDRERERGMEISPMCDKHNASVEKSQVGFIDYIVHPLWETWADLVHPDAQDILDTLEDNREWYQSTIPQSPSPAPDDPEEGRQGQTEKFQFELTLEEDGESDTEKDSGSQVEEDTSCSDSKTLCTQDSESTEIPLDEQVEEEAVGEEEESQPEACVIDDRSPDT
T2 sequence (Q07343 with tags, fused parts or gaps isoform Q07343-2): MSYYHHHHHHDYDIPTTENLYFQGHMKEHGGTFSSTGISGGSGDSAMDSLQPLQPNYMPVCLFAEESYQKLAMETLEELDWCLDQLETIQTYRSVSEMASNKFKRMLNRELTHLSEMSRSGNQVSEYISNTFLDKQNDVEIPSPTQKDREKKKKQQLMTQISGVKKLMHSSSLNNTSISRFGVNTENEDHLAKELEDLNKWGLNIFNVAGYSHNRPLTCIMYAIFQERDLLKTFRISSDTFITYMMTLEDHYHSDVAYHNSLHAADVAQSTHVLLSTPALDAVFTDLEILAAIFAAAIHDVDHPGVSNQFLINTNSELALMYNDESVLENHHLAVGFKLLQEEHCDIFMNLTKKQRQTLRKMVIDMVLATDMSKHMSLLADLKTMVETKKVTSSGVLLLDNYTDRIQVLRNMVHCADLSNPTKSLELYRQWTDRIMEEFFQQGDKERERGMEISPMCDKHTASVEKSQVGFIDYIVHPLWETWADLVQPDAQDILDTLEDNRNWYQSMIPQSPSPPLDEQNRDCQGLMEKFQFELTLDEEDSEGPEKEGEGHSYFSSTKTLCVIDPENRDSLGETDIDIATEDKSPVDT
T4 sequence (Q08499 380-756): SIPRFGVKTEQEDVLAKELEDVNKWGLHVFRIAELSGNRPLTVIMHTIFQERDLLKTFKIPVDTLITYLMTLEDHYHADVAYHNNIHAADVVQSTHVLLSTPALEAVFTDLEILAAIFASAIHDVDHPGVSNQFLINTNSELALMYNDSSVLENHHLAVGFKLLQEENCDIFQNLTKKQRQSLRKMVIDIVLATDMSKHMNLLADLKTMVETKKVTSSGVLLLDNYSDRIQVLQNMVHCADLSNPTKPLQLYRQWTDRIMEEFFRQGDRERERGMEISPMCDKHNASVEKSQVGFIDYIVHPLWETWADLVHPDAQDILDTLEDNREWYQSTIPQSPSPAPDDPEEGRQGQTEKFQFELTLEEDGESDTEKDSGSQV

| pIC50 [1] | pIC50 [2] | pIC50 [3] | pIC50 [4] | pIC50 [5] | Structure (SMILES) |
| --- | --- | --- | --- | --- | --- |
| > 5.00 | > 5.00 | > 5.00 | ≥ 5.00 | ≥ 5.00 | COc1ccc(-c2c[nH]c3ncccc23)cc1OC [Compound 1, 3-(3,4-dimethoxy-phenyl)-1H-pyrrolo[2,3-b]pyridine] |
| > 5.00 | > 5.00 | > 5.00 | ≥ 5.00 | ≥ 5.00 | COc1ccc(-c2cn(S(=O)(=O)c3ccccc3)c3ncccc23)cc1OC [Compound 5, 1-benzenesulfonyl-3-(3,4-dimethoxy-phenyl)-1H-pyrrolo[2,3-b]pyridine] |
| > 5.00 | > 5.00 | > 5.00 | ≥ 5.00 | ≥ 5.00 | COc1ccc(-c2cn(S(=O)(=O)Cc3ccc(Cl)cc3)c3ncccc23)cc1OC [Compound 17, 1-(4-chloro-phenylmethanesulfonyl)-3-(3,4-dimethoxy-phenyl)-1H-pyrrolo[2,3-b]pyridine] |
| > 5.00 | > 5.00 | > 5.00 | ≥ 5.00 | ≥ 5.00 | COc1ccc(-c2cn(S(=O)(=O)Cc3cccc([N+](=O)[O-])c3)c3ncccc23)cc1OC [Compound 18, 3-(3,4-dimethoxy-phenyl)-1-(3-nitro-phenylmethanesulfonyl)-1H-pyrrolo[2,3-b]pyridine] |
| > 5.00 | > 5.00 | > 5.00 | ≥ 5.00 | ≥ 5.00 | COc1ccc(-c2cn(S(=O)(=O)c3cc(C)cc4cccnc34)c3ncccc23)cc1OC [Compound 24] |
| > 5.00 | > 5.00 | > 5.00 | ≥ 5.00 | – | COc1ccc(-c2cn(C(=O)Nc3ccccc3)c3ncccc23)cc1OC [Compound 28, 3-(3,4-Dimethoxy-phenyl)-pyrrolo[2,3-b]pyridine-1-carboxylic acid phenylamide] |
| > 5.00 | > 5.00 | > 5.00 | ≥ 5.00 | – | CCOC(=O)c1cccc(NC(=O)n2cc(-c3ccc(OC)c(OC)c3)c3cccnc32)c1 [Compound 30, 3-[3-(3,4-Dimethoxy-phenyl)-pyrrolo[2,3-b]pyridine-1-carbonyl]-amino-benzoic acid ethyl ester] |
| > 5.00 | > 5.00 | > 5.00 | ≥ 5.00 | ≥ 5.00 | COc1ccc(-c2cn(C(=O)Nc3ccc(F)c([N+](=O)[O-])c3)c3ncccc23)cc1OC [Compound 31, 3-(3,4-Dimethoxy-phenyl)-pyrrolo[2,3-b]pyridine-1-carboxylic acid (4-fluoro-3-nitro-phenyl)-amide] |
| > 5.00 | > 5.00 | > 5.00 | ≥ 5.00 | < 5.00 | COc1cccc(NC(=O)n2cc(-c3ccc(OC)c(OC)c3)c3cccnc32)c1 [Compound 32, 3-(3,4-Dimethoxy-phenyl)-pyrrolo[2,3-b]pyridine-1-carboxylic acid (3-methoxy-phenyl)-amide] |
| > 5.00 | > 5.00 | > 5.00 | ≥ 5.00 | < 5.00 | COc1ccc(-c2cn(C(=O)Nc3ccc4c(c3)OCO4)c3ncccc23)cc1OC [Compound 36, 3-(3,4-Dimethoxy-phenyl)-pyrrolo[2,3-b]pyridine-1-carboxylic acidbenzo[1,3]dioxol-5-ylamide] |
| > 5.00 | > 5.00 | > 5.00 | ≥ 5.00 | < 5.00 | COc1cccc(NC(=S)n2cc(-c3ccc(OC)c(OC)c3)c3cccnc32)c1 [Compound 42, 3-(3,4-dimethoxy-phenyl)-pyrrolo[2,3-b]pyridine-1-carbothioic acid (3-methoxy-phenyl)-amide] |
| > 5.00 | > 5.00 | > 5.00 | ≥ 5.00 | ≥ 5.00 | COc1ccc(-c2ccnc3[nH]ccc23)cc1OC [Compound 50, 4-(3,4-Dimethoxy-phenyl)-1H-pyrrolo[2,3-b]pyridine] |
| > 5.00 | > 5.00 | > 5.00 | – | < 5.00 | COc1ccc(-c2cn(S(=O)(=O)c3csc4ccccc34)c3ncccc23)cc1OC [Compound 91, 1-(Benzo[b]thiophene-3-sulfonyl)-3-(3,4-dimethoxy-phenyl)-1H-pyrrolo[2,3-b]pyridine] |
| < 5.00 | > 5.00 | > 5.00 | ≥ 5.00 | – | COc1ccc2c(c1)c(-c1ccc(OC)c(OC3CCCC3)c1)cn2S(=O)(=O)c1cccc2cc(C)cnc12 [Compound 97, 8-[5-Methoxy-3-(3-cyclopentyloxy-4-methoxy-phenyl)-indole-1-sulfonyl]-3-methyl-quinoline] |
| > 5.00 | > 5.00 | > 5.00 | ≥ 5.00 | – | COc1ccc(-c2cn(S(=O)(=O)c3ccccc3)c3ncccc23)cc1OCc1ccccc1 [Compound 103, 1-Benzenesulfonyl-3-(3-benzyloxy-4-methoxy-phenyl)-1H-pyrrolo[2,3-b]pyridine] |
| > 5.00 | > 5.00 | > 5.00 | ≥ 5.00 | – | COc1ccc(-c2cn(Cc3cc(-c4ccccc4)no3)c3ncccc23)cc1OC [Compound 104, 3-(3,4-Dimethoxy-phenyl)-1-(3-phenyl-isoxazol-5-ylmethyl)-1H-pyrrolo[2,3-b]pyridine] |
| > 5.00 | > 5.00 | > 5.00 | – | ≥ 5.00 | COc1ccc(-c2cn(C(=O)c3ccc(C)c4ccccc34)c3ncccc23)cc1OC [Compound 114, [3-(3,4-Dimethoxy-phenyl)-pyrrolo[2,3-b]pyridin-1-yl]-(4-methyl-naphthalen-1-yl)-methanone] |
| > 5.00 | > 5.00 | > 5.00 | – | < 5.00 | COc1ccc(-c2cn(C(=O)c3c(-c4ccccc4)cnc4ccccc34)c3ncccc23)cc1OC [Compound 117, [3-(3,4-Dimethoxy-phenyl)-pyrrolo[2,3-b]pyridin-1-yl]-(3-phenyl-quinolin-4-yl)-methanone] |
| > 5.00 | > 5.00 | > 5.00 | ≥ 5.00 | – | COc1ccc(-c2cn(C(=O)c3c(OCC(F)(F)F)ccc4ccccc34)c3ncccc23)cc1OC1CCCC1 [Compound 124, [3-(3-Cyclopentyloxy-4-methoxy-phenyl)-pyrrolo[2,3-b]pyridin-1-yl]-[2-(2,2,2-trifluoro-ethoxy)-naphthalen-1-yl]-methanone] |
| > 5.00 | > 5.00 | > 5.00 | – | ≥ 5.00 | COc1ccc(-c2ccnc3c2ccn3S(=O)(=O)Cc2ccccc2)cc1OC [Compound 127, 4-(3,4-Dimethoxy-phenyl)-1-phenylmethanesulfonyl-1H-pyrrolo[2,3-b]pyridine] |
| – | – | > 5.00 | ≥ 5.00 | – | COc1ccc(-c2c(C)[nH]c3ncccc23)cc1OC [Compound 143, 3-(3,4-Dimethoxy-phenyl)-2-methyl-1H-pyrrolo[2,3-b]pyridine] |
